One assay has as its target T1, αWT β-αK24′A GlyR (Homo sapiens, UniProt P23415+P48167, A275I/A296P/F268Y/G272Q/K304A/L286I/M270L/M271I/P292M/P300G/S295A/T277S/V266M/V273M/V282I).
T1 construct: The α R218-Q219 and β R242-Q243 are also the joining sites for chimeras constructed between the ECD and TMD; expressed in transfected cells; host or cells: HEK293 (ATCC)
T1 sequence (P23415 29-449 isoform P23415-2): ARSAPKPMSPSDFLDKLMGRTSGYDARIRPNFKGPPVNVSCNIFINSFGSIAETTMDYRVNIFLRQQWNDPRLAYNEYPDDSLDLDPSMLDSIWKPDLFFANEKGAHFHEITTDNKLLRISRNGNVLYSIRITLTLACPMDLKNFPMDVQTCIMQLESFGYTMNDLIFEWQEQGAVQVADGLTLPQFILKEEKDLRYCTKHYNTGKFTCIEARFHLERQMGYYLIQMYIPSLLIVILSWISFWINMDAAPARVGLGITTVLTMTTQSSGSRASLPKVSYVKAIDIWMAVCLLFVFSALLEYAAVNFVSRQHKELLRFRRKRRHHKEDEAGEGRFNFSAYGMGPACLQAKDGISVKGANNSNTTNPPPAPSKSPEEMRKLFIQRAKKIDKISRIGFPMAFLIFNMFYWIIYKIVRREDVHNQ
T1 sequence (P48167+P23415 with tags, fused parts or gaps P48167:V266M/P48167:F268Y/P48167:M270L/P48167:M271I/P48167:G272Q/P48167:V273M/P48167:A275I/P48167:T277S/P48167:V282I/P48167:L286I/P48167:P292M/P48167:S295A/P48167:A296P/P48167:P300G/P23415:K304A): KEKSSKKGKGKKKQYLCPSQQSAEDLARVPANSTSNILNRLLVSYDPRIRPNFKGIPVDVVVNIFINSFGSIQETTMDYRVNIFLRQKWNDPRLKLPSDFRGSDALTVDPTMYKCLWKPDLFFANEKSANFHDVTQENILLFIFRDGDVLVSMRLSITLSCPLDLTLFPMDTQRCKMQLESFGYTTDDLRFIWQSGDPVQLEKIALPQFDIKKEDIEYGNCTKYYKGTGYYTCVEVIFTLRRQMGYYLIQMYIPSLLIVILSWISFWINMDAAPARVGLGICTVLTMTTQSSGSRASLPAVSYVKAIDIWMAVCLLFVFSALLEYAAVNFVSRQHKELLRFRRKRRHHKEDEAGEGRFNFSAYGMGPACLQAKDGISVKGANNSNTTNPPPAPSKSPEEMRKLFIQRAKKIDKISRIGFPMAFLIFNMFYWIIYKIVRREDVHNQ
The class given is cell-based. How it is done: (§1) The human GlyR α1 and β subunit cDNAs were subcloned into the pcDNA3.1zeo+ (Invitrogen) or pGEMHE [44] plasmid vectors for expression in HEK293 cells or Xenopus oocytes, respectively. Site-directed mutagenesis and chimera construction were performed using the QuickChange (Stratagene, La Jolla, CA, USA) mutagenesis and multiple-template-based sequential PCR protocols, respectively.
(§2) For the β-α chimeras used for determining the effect of hyperekplexia-mimicking mutations on α1 β GlyR channel function, the Thr at the M2 6′ position was replaced by a Cys. […] Through such a modification, picrotoxin resistance was used to distinguish the heteromeric α1 β-α GlyR from the homomeric α1 GlyR when the α1 and β-α subunits were co-expressed.
(§3) The effects of the hyperekplexia-mimicking mutations, K24′A, V25′A and Y27′A, were examined on GlyRs expressed in HEK293 cells (ATCC). Details of the HEK293 cell culture, GlyR expression and electrophysiological recording of the HEK293 cells are described elsewhere. Briefly, HEK293 cells were maintained in DMEM supplemented with 10% fetal bovine serum. Cells were transfected using a calcium phosphate precipitation protocol. When co-transfecting the α1 together with the β or any other chimera subunits, their respective cDNAs were combined in a ratio of 1∶10. In addition, the pEGFP-N1 (Clontech) was co-transfected to facilitate identifying the transfected cells. […] Cells were treated with external Ringer's solution and internal CsCl solution [30]. Cells were voltage-clamped at −40 mV. When the heteromeric GlyRs were expressed, the picrotoxin sensitivity was tested to confirm that the majority of receptors are heteromers, [30].
(§4) Results are expressed as mean±standard error of the mean of three or more independent experiments. […] Statistical significance was determined using the Student's t-test.

The next assay addresses T2, αWT β-αY27′A GlyR (Homo sapiens, UniProt P23415+P48167, A275I/A296P/F268Y/G272Q/L286I/M270L/M271I/P292M/P300G/S295A/T277S/V266M/V273M/V282I/Y307A).
T2 construct: The α R218-Q219 and β R242-Q243 are also the joining sites for chimeras constructed between the ECD and TMD; expressed in transfected cells; host or cells: HEK293 cells (ATCC), pcDNA3.1zeo+
T2 sequence (P23415 29-449 isoform P23415-2): T1 sequence (P23415 29-449 isoform P23415-2)
T2 sequence (P48167+P23415 with tags, fused parts or gaps P48167:V266M/P48167:F268Y/P48167:M270L/P48167:M271I/P48167:G272Q/P48167:V273M/P48167:A275I/P48167:T277S/P48167:V282I/P48167:L286I/P48167:P292M/P48167:S295A/P48167:A296P/P48167:P300G/P23415:Y307A): T1 sequence (P48167+P23415 with tags, fused parts or gaps P48167:V266M/P48167:F268Y/P48167:M270L/P48167:M271I/P48167:G272Q/P48167:V273M/P48167:A275I/P48167:T277S/P48167:V282I/P48167:L286I/P48167:P292M/P48167:S295A/P48167:A296P/P48167:P300G/P23415:K304A) with A300K, Y303A
Type of assay: cell-based. The protocol: as §1, §2, §3, §4

[1] abbreviates: αWT β-αK24′A, HEK293, with glycine at EC50 of α1 homomer.
Where [2] appears, read: αWT β-αY27′A, HEK293, with glycine at EC50 of α1 homomer.

As to picrotoxin [PTX], at αWT β-αK24′A GlyR (setting [1]), the “10uM PTX inhibition (%)” value was determined as 12.0±3.0% and the “100uM PTX inhibition (%)” value stood at 31±3%. Also, on αWT β-αY27′A GlyR (setting [2]), the “10uM PTX inhibition (%)” value is reported as 22±7% and the “100uM PTX inhibition (%)” value amounted to 48±4%.

With `NCC(=O)O` [glycine], at αWT β-αK24′A GlyR, the Imax stood at 5.9±1.7 nA and the nH is recorded as 1.5±0.3. On αWT β-αY27′A GlyR, this compound gave an Imax of 6.5±1.6 nA and a nH of 2.1±0.6.
